Test results from PubChem BioAssay AID1508591.

Conditions: rat; liver microsomes; pH 7.4; 15.0 min; 1.0 µM

half-life [min] | SMILES
7.7 | Clc1cccc(Nc2nc(-c3ccncc3)nc3ccccc23)c1
> 30 | O=C(Cc1ccc2ccccc2c1)Nc1ccc(S(=O)(=O)Nc2nccs2)cc1
1.52 | COc1ccccc1OCCNCC(O)COc1cccc2[nH]c3ccccc3c12 (configuration not stated)
1.98 | COC(=O)c1ccnc(-c2cc(C(=O)NCCc3ccccc3)ccn2)c1
1.69 | CCOC(=O)C1CCN(c2ncnc3c2c(-c2ccccc2)cn3-c2ccccc2)CC1
> 30 | O=C(NC1CCCc2c1cnn2-c1ccc(O)cc1)c1ccccn1 (configuration not stated)
20.3 | COc1ccc(-c2nc(NC(C)c3ccccc3)c3ccccc3n2)cc1 (configuration not stated)
> 30 | O=C(Nc1ncc(Cc2ccc(C(F)(F)F)cc2)s1)c1ccc(-c2cccnc2)o1
> 30 | CNC(=O)c1cc(Oc2ccc(NC(=O)Nc3ccc(Cl)c(C(F)(F)F)c3)c(F)c2)ccn1
5.63 | c1cc(-c2cc(-c3ccncc3)c3cncn3c2)c2cc[nH]c2c1
21 | CCN1C(=O)c2ccccc2[S@](=O)c2ccc(C(=O)NCc3ccc(C#N)cc3)cc21
1.47 | COc1ccc(Cn2c(CCC(=O)Nc3cc(C)cc(C)c3)nc3cccnc32)cc1
14.3 | Cc1ccc(S(=O)(=O)Nc2cnccc2C(=O)Nc2nc(-c3ccccc3)cs2)cc1
> 30 | Nc1c(-c2ccccc2)cnc2c(-c3ccccc3)cnn12
4.2 | Cc1ccc(S(=O)(=O)Nc2cccnc2C(=O)Nc2nc(-c3ccccc3)cs2)cc1
1.69 | C[C@@H]1C(=O)O[C@H]2[C@H]1CC[C@@]1(C)Cc3sc(NS(=O)(=O)Cc4ccccc4)nc3[C@@H](C)[C@H]21
1.8 | CC(=O)c1sc(NC(=O)c2ccco2)nc1-c1ccccc1
9.9 | O=S(=O)(Nc1cccc2ccncc12)c1ccc(NCc2cccc(Cl)c2O)cc1
2.6 | Cc1ccc(N2CCC(CNc3nc(-c4ccccc4C(C)C)ncc3C)CC2)cn1

half-life [min] | SMILES
> 30 | CC1=C(C(=O)Nc2nncs2)C(c2nn(C)cc2Cl)N=C(Nc2nc3ccccc3o2)N1 (configuration not stated)
1.5 | CCOc1ccc(CCNC(=O)c2ccccc2)cc1OCC
> 30 | N#Cc1nc(-c2cccc3ccccc23)oc1Nc1ccccc1
14 | O=S(=O)(Nc1nccs1)c1ccc(NCc2cccc(Cl)c2O)cc1
2.4 | COc1ccc(-n2c(C)c(C(C)=O)c3ccccc32)cc1
> 30 | NC(=O)C1CCN(c2nc(-c3cccc4sc5ccccc5c34)cs2)CC1
> 30 | COc1cc(-c2ccnc3c2c(C)nn3-c2ccc(C(F)(F)F)cc2)ccc1O
4 | COc1cccc(NS(=O)(=O)c2ccc(NCc3cccc(OC)c3O)cc2)c1
23 | CCc1ccc(NC(=O)c2[nH]c(C)c(C(C)=O)c2C)cc1S(=O)(=O)Nc1ccc(Br)cc1
> 30 | CN1CCN(Cc2ccc(NC(=O)Cc3ccc(Oc4cc(NC(=O)C5CC5)ncn4)cc3)cc2C(F)(F)F)CC1
18 | CC(C)n1cc(-c2ccc(Oc3ccccc3)cc2)c2c(N)ncnc21
1.5 | c1ccc(-c2csc3ncnc(Sc4nnn(-c5ccccc5)n4)c23)cc1
> 30 | O=S(=O)(Nc1nc2ccccc2s1)c1ccc(NCc2ccc(Br)cc2O)cc1
5.38 | COC(=O)CNC(=O)c1nc(-c2ccccc2OC)c2ccccn12
2.71 | Cc1ccccc1Nc1c(-c2ccccc2O)nc2sccn12
10 | Fc1ccc(F)c(Nc2nc(-c3ccncc3)nc3ccccc23)c1
11 | COc1ccc(NC(=O)c2cccnc2C)cc1S(=O)(=O)Nc1ccc(Br)cc1
> 30 | CC(=O)Nc1nc(C)c(-c2ccc(Cl)c(S(=O)(=O)NCCO)c2)s1
> 30 | O=C(O)c1cccc(-c2cnc3ccccc3c2)c1

half-life [min] | SMILES
2.32 | CCc1ccc(NC(=O)[C@H](Cc2c[nH]c3ccccc23)NC(=O)[C@@H]2Cc3ccccc3CN2)cc1
2.5 | CCOc1ccc(C(C)CNC(=O)c2cc3sccc3n2Cc2ccccc2)cc1OCC (configuration not stated)
3.9 | Cc1cnc(-c2ccccc2C(C)C)nc1NCC1CCN(c2cccnc2)CC1
7.1 | CCCn1cnc2cc(NCc3ccc(OC)cc3OC)ccc21
6.38 | COc1cc(Cl)c(C)cc1NC(=O)CSc1ncc(S(=O)(=O)c2ccc(C(C)(C)C)cc2)c(=O)[nH]1
6.45 | Cc1cnc(-c2ccccc2OC(C)C)nc1NCc1ccc(-n2ccnn2)cc1
2.8 | CCOc1cc(-c2nccc3cc(OC)c(OC)cc23)cc(OCC)c1OCC
15 | Nc1cc(-c2nc(Nc3ccc(F)c(F)c3)c3ccccc3n2)ccn1
18.6 | O=C(NC(c1ccccc1)c1cc(Cl)c2cccnc2c1O)c1cccnc1 (configuration not stated)
7.87 | COc1ccc(OC)c(-c2cc(C(=O)N3CCN(c4ncccn4)CC3)c3ccccc3n2)c1
2.3 | CC1(C)CC2CC(C)(CN2S(=O)(=O)c2ccc(C(=O)Nc3ccc(Cl)cc3)cc2)C1 (configuration not stated)
13 | c1ccc2c(Nc3ccn[nH]3)nc(-c3ccncc3)nc2c1
4.02 | COC(=O)c1ccc([C@H]2c3[nH]c4ccccc4c3C[C@H](C(=O)OC)N2C(=O)CCl)cc1
> 30 | CC(=O)c1c(C)[nH]c(C(=O)Nc2ccc(OCCCN(C)C)c(S(=O)(=O)Nc3ccc(Br)cc3)c2)c1C
9.5 | CCn1c(=NC(=O)c2ccc(S(=O)(=O)N3CCCCC3)cc2)sc2cccc(OC)c21
1.6 | CCOc1ccc(CCNC(=O)c2cc3sccc3n2CCN2CCOCC2)cc1OCC
9.42 | O=C(Cc1ccc(O)cc1)N1CC(CNc2ccccc2)C2(C1)CN(c1ccccc1)C2 (configuration not stated)
8.26 | COc1ccc(CCNC(=O)c2cc3c(=O)n4ccccc4nc3n(CCCN3CCOCC3)c2=N)cc1
> 30 | COc1ccc(-c2ccc(C(=O)NC3CC(c4cc(=O)[nH]c(N)n4)C3)o2)cc1 (configuration not stated)

More lines, now with the values behind:

SMILES | half-life [min]
Cc1ccccc1C(=O)Nc1nc2c(s1)CC(C(C)(C)C)CC2 (configuration not stated) | 10.5
FC(F)(F)c1cccc(Nc2ccc(CNc3nc(-c4ccccc4C(F)(F)F)nc4ccccc34)cc2)c1 | 15.6
CC(=O)N1CCc2cc(S(=O)(=O)NCCC3=CCCCC3)ccc21 | 1.3
NC(=O)C1CCN(c2nc(-c3ccc([N+](=O)[O-])cc3)cs2)CC1 | 5.53
C#CC1(O)CCC2C3CCC4=C/C(=N/OCC(=O)NCC(=O)NC(C(=O)O)C(C)C)CC[C@]4(C)C3CC[C@@]21C (some centres not stated) | > 30
O=C1CCCC2=C1C(c1ccccc1C(F)(F)F)N=C(Nc1nc3ccccc3o1)N2 (configuration not stated) | 10
O=C(NC1CC1)C1CCCN1C(=O)c1cccc(-c2ccccn2)c1 (configuration not stated) | > 30
O=C1NC(=O)C(c2cnc3ccccn23)=C1c1cn2c3c(cccc13)CN(C(=O)N1CCOCC1)CC2 | > 30
CC(C)(C)c1ccc(-n2cnc3cc(C(=O)N4CCCCC4)ccc32)cc1 | 2.7
Cn1nnnc1Sc1ncnc2sccc12 | > 30
OC1(CN2CCN(c3ccc(F)c(Cl)c3)CC2)CCCNC1 (configuration not stated) | 5.96
Clc1ccccc1-c1nccc(-n2ccnc2)n1 | > 30
Cc1cccc(-c2noc([C@@H]3Cc4nc[nH]c4CN3C(=O)CC(C)(C)CC(=O)O)n2)c1 | > 30
Brc1ccc(-c2csc(N3CCOCC3)n2)cc1 | 2.48
CC[C@H]1CN2CCc3cc(OC)c(OC)cc3[C@@H]2C[C@@H]1C[C@H]1NCCc2cc(OC)c(OC)cc21 | > 30
O=C(c1ccc2c(c1)ncn2-c1cccc(C(F)(F)F)c1)N1CCCCC1 | 4.4
Fc1cc(Nc2nc(-c3ccncc3)nc3ccccc23)ccc1-c1cccc(C(F)(F)F)c1 | > 30
Cc1cnc(-c2ccccc2C2COC2)nc1NCC1CCN(c2cccnc2)CC1 | > 30
CC(=O)c1ccc(N2CCN(S(=O)(=O)c3ccc4c(c3)CC(=O)N4)CC2)cc1 | > 30
Cc1nn(CCc2nc(-c3ccccc3F)cs2)c2[nH]c(=O)cc(C(F)(F)F)c12 | 9.3
COc1cncc(Nc2ncc(-c3cccc(N(C)C)c3)c3c2OCC3)c1 | 11.7
COc1cc(/C=C(\C#N)C(=O)c2ccc(O)c(O)c2)cc(I)c1O | > 30
CC[C@H]1C=CC=CC[C@@H](C)[C@H](O)[C@@](C)(O)C(=O)[C@@H](C)[C@H](O)[C@@H](C)C(=O)[C@@H](C)[C@H](O)[C@@H](C)C=CC(=O)O[C@@H]2[C@@H](C)[C@H](CC1)O[C@]1(CC[C@H](C)[C@H](C[C@@H](C)O)O1)[C@H]2C | > 30

SMILES | half-life [min]
COc1cc(F)ccc1-c1nc(-c2c(C)noc2C)cc2c1cc(C)n2C | 21.6
CC1(C)C[C@@H]2C[C@@](C)(CN2S(=O)(=O)c2ccc(C(=O)Nc3ccc(Cl)c(S(=O)(=O)N4CCOCC4)c3)cc2)C1 | 3.95
O=c1[nH]cnc2nc[nH]c12 | > 30
C[C@H]1CN(C(=O)c2nn(C)c3ccccc23)C[C@@H]1c1nc(-c2cccnc2)no1 | 4.4
Cn1nnnc1Sc1ncnc2scc(-c3ccccc3F)c12 | 5.28
NC(=O)C1CCN(c2ncnc(-c3ccc4c(c3)OCCCO4)n2)CC1 | 17.3
Fc1ccc(Cl)cc1-c1nc(Nc2ccncc2)c2nccnc2n1 | 15.9
CC(=O)c1c(C)[nH]c(C(=O)Nc2cccc(S(=O)(=O)N3CCCCC3)c2)c1C | 1.7
Cc1cc(C)nc(NC(=S)N2CCN(c3ccncc3)CC2)c1 | > 30
O=C1CCCC2=C1C(c1[nH]ncc1Cl)N=C(Nc1nc3cc([S+](=O)([O-])N4CCCC4)ccc3o1)N2 (configuration not stated) | 8
NC(=O)C(=O)N/N=C/c1ccc([N+](=O)[O-])o1 | > 30
Cc1cc(C)nc(NC(=S)N2CCN(c3ccc(F)cc3F)CC2)c1 | > 30
COc1cc(Cl)cn2c(-c3cccc(NC4CNC4)n3)cnc12 | > 30
CCCCOC(=O)c1ccnc2cc(C(OCCN3CCCCC3)c3ccccc3Cl)sc12 (configuration not stated) | 3.32
Cc1cc(N2CCN(c3ccccc3)CC2)nc(-n2nc(C)cc2C)n1 | > 30
CCN1CCN(c2ccc3cc(S(=O)(=O)N4CCOCC4)ccc3n2)CC1 | 16
CCOC(=O)c1ccnc(CNCC(=O)N(CC)CCN(C)C)c1 | > 30
CCOc1ccc(CCNC(=O)c2cc3ccccc3n2Cc2cccc(C)c2)cc1OCC | 1.6
Cc1ccc2oc(NC3=NC(c4ccccc4Cl)C4=C(CCCC4=O)N3)nc2c1 (configuration not stated) | > 30
O=C(c1ccccc1)N1CCC(C(=O)N2CCC(N3Cc4ccccc4C3=O)CC2)CC1 | > 30
CC(=O)N1CCN(c2nc(-c3ccc(Br)cc3)cs2)CC1 | > 30
Nc1ncnc2c1c(-c1cnc3[nH]ccc3c1)nn2C1CCCC1 | 3.09
